# Experimental data from article PMC7250897, “UDP-glucosyltransferase regulates grain size and abiotic stress tolerance associated with metabolic flux redirection in rice” (Nature Communications, 2020).
# T1: GSA1^WYJ (Oryza sativa, UniProt Q9AUV3, A246V)
# T1 construct: gene Os03g0757500; full-length cDNA in pET21a (NdeI/NotI), E. coli BL21(DE3) pLysS, crude extract; WYJ allele A246, A349
# T1 sequence (Q9AUV3 1-457 A246V): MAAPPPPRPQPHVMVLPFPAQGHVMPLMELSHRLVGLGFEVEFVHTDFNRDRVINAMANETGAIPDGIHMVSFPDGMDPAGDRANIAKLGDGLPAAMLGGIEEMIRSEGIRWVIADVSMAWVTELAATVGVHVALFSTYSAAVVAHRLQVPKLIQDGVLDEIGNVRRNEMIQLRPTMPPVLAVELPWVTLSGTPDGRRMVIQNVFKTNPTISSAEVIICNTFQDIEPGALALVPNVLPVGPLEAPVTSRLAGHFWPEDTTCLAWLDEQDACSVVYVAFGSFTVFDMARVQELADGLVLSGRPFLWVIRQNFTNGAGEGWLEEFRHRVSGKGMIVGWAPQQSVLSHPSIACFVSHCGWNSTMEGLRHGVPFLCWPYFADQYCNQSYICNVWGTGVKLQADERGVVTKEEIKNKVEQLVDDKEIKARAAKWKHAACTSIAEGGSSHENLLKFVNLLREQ
# T2: GSA1^WYJ (Oryza sativa, UniProt Q9AUV3, A349T)
# T2 construct: gene Os03g0757500; full-length cDNA in pET21a (NdeI/NotI), E. coli BL21(DE3) pLysS, crude extract; WYJ allele A246, A349
# T2 sequence (Q9AUV3 1-457 A349T): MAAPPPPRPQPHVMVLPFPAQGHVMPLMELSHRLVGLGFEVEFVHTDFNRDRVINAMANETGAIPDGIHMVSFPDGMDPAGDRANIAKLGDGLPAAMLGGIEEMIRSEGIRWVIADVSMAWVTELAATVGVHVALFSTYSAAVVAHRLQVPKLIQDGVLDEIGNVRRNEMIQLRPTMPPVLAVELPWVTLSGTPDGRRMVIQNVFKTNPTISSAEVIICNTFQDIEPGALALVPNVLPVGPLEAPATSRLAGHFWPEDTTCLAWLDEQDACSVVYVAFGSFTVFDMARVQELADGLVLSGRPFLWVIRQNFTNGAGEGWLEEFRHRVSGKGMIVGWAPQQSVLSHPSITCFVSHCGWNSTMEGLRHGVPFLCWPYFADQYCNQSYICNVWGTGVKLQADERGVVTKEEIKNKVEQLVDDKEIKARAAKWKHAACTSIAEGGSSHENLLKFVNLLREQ
# Experiments:
# [1] = target: T1, GSA1^WYJ; test: HPLC glucosyltransferase assay, product peak area; settings: 250 μM acceptor, 1.5 mM UDP-glucose, 10 mM MgCl2, glycine-NaOH pH 8.6, 37 °C, 2 h
# [2] = target: T2, GSA1^WYJ; test: HPLC glucosyltransferase assay, product peak area; settings: 250 μM acceptor, 1.5 mM UDP-glucose, 10 mM MgCl2, glycine-NaOH pH 8.6, 37 °C, 2 h
# [3] = substrate: O=c1c(O)c(-c2ccc(O)cc2)oc2cc(O)cc(O)c12; test: cells, lysate or membranes; settings: sugar acceptor, UDP-glucose as donor, assay buffer 10 mM MgCl2, glycine-NaOH pH 8.6, 37 °C
# [4] = substrate: O=c1ccn([C@@H]2O[C@H](CO[P@@](=O)(O)O[P@@](=O)(O)O[C@H]3O[C@H](CO)[C@@H](O)[C@H](O)[C@H]3O)[C@@H](O)[C@H]2O)c(=O)[nH]1; test: HPLC glucosyltransferase assay, kinetics; assay type: biochemical, Oryza sativa; settings: sugar donor, kaempferol as acceptor, 10 mM MgCl2, glycine-NaOH pH 8.6, 37 °C
molecule,measurement,setting,value
O=c1c(O)c(-c2ccc(O)cc2)oc2cc(O)cc(O)c12 [kaempferol],"HPLC glucosyltransferase assay, product peak area",[1],the glucosyltransferase activity of GSA1^A246V toward kaempferol and sinapyl alcohol was comparable
same,"HPLC glucosyltransferase assay, product peak area",[2],the glucosyltransferase activity of GSA1^A349T was comparable to that of GSA1^CG14
COc1cc(/C=C/CO)cc(OC)c1O [sinapyl alcohol],"HPLC glucosyltransferase assay, product peak area",[1],the glucosyltransferase activity of GSA1^A246V toward kaempferol and sinapyl alcohol was comparable
same,"HPLC glucosyltransferase assay, product peak area",[2],the glucosyltransferase activity of GSA1^A349T was comparable to that of GSA1^CG14
"GSA1^WYJ (Oryza sativa Japonica Group) (protein, full-length cDNA in pET21a (NdeI/NotI), E. coli BL21(DE3) pLysS, crude extract; WYJ allele A246, A349) MAAPPPPRPQPHVMVLPFPAQGHVMPLMELSHRLVGLGFEVEFVHTDFNRDRVINAMANETGAIPDGIHMVSFPDGMDPAGDRANIAKLGDGLPAAMLGGIEEMIRSEGIRWVIADVSMAWVTELAATVGVHVALFSTYSAAVVAHRLQVPKLIQDGVLDEIGNVRRNEMIQLRPTMPPVLAVELPWVTLSGTPDGRRMVIQNVFKTNPTISSAEVIICNTFQDIEPGALALVPNVLPVGPLEAPATSRLAGHFWPEDTTCLAWLDEQDACSVVYVAFGSFTVFDMARVQELADGLVLSGRPFLWVIRQNFTNGAGEGWLEEFRHRVSGKGMIVGWAPQQSVLSHPSIACFVSHCGWNSTMEGLRHGVPFLCWPYFADQYCNQSYICNVWGTGVKLQADERGVVTKEEIKNKVEQLVDDKEIKARAAKWKHAACTSIAEGGSSHENLLKFVNLLREQ",Km,[3],25.54 ± 5.43 µM
same,Km,[4],51.06 ± 7.814 µM
